Data taken from patent publication US20100204265A1 (priority 2009, published 2010).

Tested on: ET (Huh-lucubineo-ET) cell line harboring I389luc-ubi-neo/NS3-3′/ET HCV replicon
Assay: Replicon assay (HCV replicon, luciferase readout)
Format: cell-based
Conditions: Hepatitis C virus
In short: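 Compounds at 10-point 2-fold dilutions (overall 0.1 nM to […], 0.5% DMSO) were applied to ET cells carrying a luciferase-neo HCV replicon, seeded a day earlier. After 48-72 hours, luciferase-based % inhibition was fitted with a Hill equation for EC50, and parallel WST-1 readings gave TC50.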

SMILES | EC50
O=C(NCCc1cn2cc(-c3ccoc3)cc(C(F)(F)F)c2n1)c1ccccc1 [Compound 138, N-[2-(6-Furan-3-yl-8-trifluoromethyl-imidazo[1,2-a]pyridin-2-yl)-ethyl]-benzamide] | 35.3 µM
O=C(Cc1cn2cc(-c3ccoc3)cc(C(F)(F)F)c2n1)N1Cc2ccccc2C1 [Compound 113, 1-(1,3-Dihydro-isoindol-2-yl)-2-(6-furan-3-yl-8-trifluoromethyl-imidazo[1,2-a]pyridin-2-yl)-ethanone] | 8.63 µM
O=C(c1nc2c(C(F)(F)F)cc(-c3cccnc3)cn2c1Cl)N1CC=C(c2nccs2)C1 [Compound 216, (3-Chloro-6-pyridin-3-yl-8-trifluoromethyl-imidazo[1,2-a]pyridin-2-yl)-(3-thiazol-2-yl-2,5-dihydro-pyrrol-1-yl)-methanone] | 0.111 µM
CC(O)[C@H](NC(=O)Cc1cn2cc(-c3ccoc3)cc(C(F)(F)F)c2n1)C(N)=O (some centres unmarked) [Compound 299, 2-[2-(6-Furan-3-yl-8-trifluoromethyl-imidazo[1,2-a]pyridin-2-yl)-acetylamino]-3-hydroxy-butyramide] | > 50 µM
CC(C)C(NC(=O)c1cn2cc(-c3ccoc3)cc(C(F)(F)F)c2n1)C(=O)O (centres unmarked) [Compound 272, 2-[(6-Furan-3-yl-8-trifluoromethyl-imidazo[1,2-a]pyridine-2-carbonyl)-amino]-3-methyl-butyric acid] | > 50 µM
COC(=O)N1CCCN(C(=O)c2nc3c(C(F)(F)F)cc(-c4ccoc4)cn3c2Cl)CC1 [Compound 331, 4-(3-Chloro-6-furan-3-yl-8-trifluoromethyl-imidazo[1,2-a]pyridine-2-carbonyl)-[1,4]diazepane-1-carboxylic acid methyl ester] | 26.8 µM
N#CC1(c2cccs2)CCN(C(=O)c2nc3c(C(F)(F)F)cc(-c4ccoc4)cn3c2Cl)CC1 [Compound 221, 1-(3-Chloro-6-furan-3-yl-8-trifluoromethyl-imidazo[1,2-a]pyridine-2-carbonyl)-4-thiophen-2-yl-piperidine-4-carbonitrile] | 0.0455 µM
CS(=O)(=O)NC1CN(C(=O)c2nc3c(C(F)(F)F)cc(Br)cn3c2Cl)C1 [Compound 140, N-[1-(6-Bromo-3-chloro-8-trifluoromethyl-imidazo[1,2-a]pyridine-2-carbonyl)-azetidin-3-yl]-methanesulfonamide] | 13.8 µM
CC(=O)N1CCCC1C(=O)NCc1cn2cc(-c3ccoc3)cc(C(F)(F)F)c2n1 (centres unmarked) [Compound 284, 1-Acetyl-pyrrolidine-2-carboxylic acid (6-furan-3-yl-8-trifluoromethyl-imidazo[1,2-a]pyridin-2-ylmethyl)-amide] | > 50 µM
Cc1ccnc(C2=CCN(C(=O)c3nc4c(C(F)(F)F)cc(-c5ccoc5)cn4c3Cl)CC2)c1F [Compound 206, (3-Chloro-6-furan-3-yl-8-trifluoromethyl-imidazo[1,2-a]pyridin-2-yl)-(3-fluoro-4-methyl-3′,6′-dihydro-2′H-[2,4′]bipyridinyl-1′-yl)-methanone] | 5.95 µM
O=C(c1nc2c(C(F)(F)F)cc(-c3ccoc3)cn2c1Cl)N1CC=C(C#CC2CCCC2)CC1 [Compound 200, (3-Chloro-6-furan-3-yl-8-trifluoromethyl-imidazo[1,2-a]pyridin-2-yl)-(4-cyclopentylethynyl-3,6-dihydro-2H-pyridin-1-yl)-methanone] | > 50 µM
O=C(NC(C(=O)O)c1ccccc1)c1cn2cc(-c3ccoc3)cc(C(F)(F)F)c2n1 (centres unmarked) [Compound 271, [(6-Furan-3-yl-8-trifluoromethyl-imidazo[1,2-a]pyridine-2-carbonyl)-amino]-phenyl-acetic acid] | > 50 µM
O=C(c1nc2c(C(F)(F)F)cc(-c3ccoc3)cn2c1Cl)N1CCC(F)(c2ncccc2F)CC1 [Compound 223, (3-Chloro-6-furan-3-yl-8-trifluoromethyl-imidazo[1,2-a]pyridin-2-yl)-(3,4′-difluoro-3′,4′,5′,6′-tetrahydro-2′H-[2,4′]bipyridinyl-1′-yl)-methanone] | 0.657 µM
O=C(c1nc2c(C(F)(F)F)cc(-c3cn[nH]c3)cn2c1Cl)N1CC=C(c2cccnc2)C1 [Compound 134, [3-Chloro-6-(1H-pyrazol-4-yl)-8-trifluoromethyl-imidazo[1,2-a]pyridin-2-yl]-(3-pyridin-3-yl-2,5-dihydro-pyrrol-1-yl)-methanone] | 0.188 µM
CC(C)CC(NC(=O)c1cn2cc(-c3ccoc3)cc(C(F)(F)F)c2n1)C(=O)O (centres unmarked) [Compound 270, 2-[(6-Furan-3-yl-8-trifluoromethyl-imidazo[1,2-a]pyridine-2-carbonyl)-amino]-4-methyl-pentanoic acid] | > 50 µM
O=C(NCc1cn2cc(-c3ccoc3)cc(C(F)(F)F)c2n1)C1CC1 [Compound 226, Cyclopropanecarboxylic acid (6-furan-3-yl-8-trifluoromethyl-imidazo[1,2-a]pyridin-2-ylmethyl)-amide] | > 50 µM

SMILES | EC50
O=C(c1nc2c(C(F)(F)F)cc(-c3c[nH]cn3)cn2c1Cl)N1CC=C(c2ncccc2F)CC1 [Compound 122, [3-Chloro-6-(1H-imidazol-4-yl)-8-trifluoromethyl-imidazo[1,2-a]pyridin-2-yl]-(3-fluoro-3′,6′-dihydro-2′H-[2,4′]bipyridinyl-1′-yl)-methanone] | 5.89 µM
NCCc1cn2cc(-c3ccoc3)cc(C(F)(F)F)c2n1 [Compound 258, 2-(6-Furan-3-yl-8-trifluoromethyl-imidazo[1,2-a]pyridin-2-yl)-ethylamine] | > 50 µM
Cc1ccc(F)c(C2=CCN(C(=O)c3nc4c(C(F)(F)F)cc(-c5ccoc5)cn4c3Cl)CC2)n1 [Compound 207, (3-Chloro-6-furan-3-yl-8-trifluoromethyl-imidazo[1,2-a]pyridin-2-yl)-(3-fluoro-6-methyl-3′,6′-dihydro-2′H-[2,4′]bipyridinyl-1′-yl)-methanone] | 17.9 µM
O=C(c1nc2c(C(F)(F)F)cc(-c3ccoc3)cn2c1Cl)N1CC=C(c2cccc(F)n2)CC1 [Compound 204, (3-Chloro-6-furan-3-yl-8-trifluoromethyl-imidazo[1,2-a]pyridin-2-yl)-(6-fluoro-3′,6′-dihydro-2′H-[2,4′]bipyridinyl-1′-yl)-methanone] | 3.71 µM
COC(=O)C(NC(=O)c1cn2cc(-c3ccoc3)cc(C(F)(F)F)c2n1)c1ccccc1 (centres unmarked) [Compound 255, [(6-Furan-3-yl-8-trifluoromethyl-imidazo[1,2-a]pyridine-2-carbonyl)-amino]-phenyl-acetic acid methyl ester] | > 50 µM
CS(=O)(=O)NC1CN(C(=O)c2nc3c(C(F)(F)F)cc(-c4cccc(F)c4)cn3c2Cl)C1 [Compound 141, N-{1-[3-Chloro-6-(3-fluoro-phenyl)-8-trifluoromethyl-imidazo[1,2-a]pyridine-2-carbonyl]-azetidin-3-yl}-methanesulfonamide] | 0.476 µM
O=C(c1nc2c(C(F)(F)F)cc(C3=CCNC3)cn2c1Cl)N1CC=C(c2ncccc2F)CC1 [Compound 121, [3-Chloro-6-(2,5-dihydro-1H-pyrrol-3-yl)-8-trifluoromethyl-imidazo[1,2-a]pyridin-2-yl]-(3-fluoro-3′,6′-dihydro-2′H-[2,4′]bipyridinyl-1′-yl)-methanone] | 2.54 µM
O=C(NC(CO)C(=O)O)c1cn2cc(-c3ccoc3)cc(C(F)(F)F)c2n1 (centres unmarked) [Compound 267, 2-[(6-Furan-3-yl-8-trifluoromethyl-imidazo[1,2-a]pyridine-2-carbonyl)-amino]-3-hydroxy-propionic acid] | > 50 µM
O=C(O)c1nc2c(C(F)(F)F)cc(-c3ccoc3)cn2c1Cl [Compound 101, 3-Chloro-6-furan-3-yl-8-trifluoromethyl-imidazo[1,2-a]pyridine-2-carboxylic acid] | 7.01 µM
O=C(c1nc2c(C(F)(F)F)cc(-c3ccoc3)cn2c1Cl)N1CC[C@@H](NC(=O)C(F)(F)F)C1 [Compound 162, N-[1-(3-Chloro-6-furan-3-yl-8-trifluoromethyl-imidazo[1,2-a]pyridine-2-carbonyl)-pyrrohdin-3-yl]-2,2,2-trifluoro-acetamide] | 43.5 µM
O=C(c1nc2c(C(F)(F)F)cc(-c3cn[nH]c3)cn2c1Cl)N1CCC(Nc2ccccc2)C1 (centres unmarked) [Compound 179, [3-Chloro-6-(1H-pyrazol-4-yl)-8-trifluoromethyl-imidazo[1,2-a]pyridin-2-yl]-(3-phenylamino-pyrrolidin-1-yl)-methanone] | 10.2 µM
O=C(c1nc2c(C(F)(F)F)cc(-c3cn[nH]c3)cn2c1CO)N1CC=C(c2nccs2)C1 [Compound 173, [3-Hydroxymethyl-6-(1H-pyrazol-4-yl)-8-trifluoromethyl-imidazo[1,2-a]pyridin-2-yl]-(3-thiazol-2-yl-2,5-dihydro-pyrrol-1-yl)-methanone] | 0.444 µM
COC(=O)C(Cc1cnc[nH]1)NC(=O)Cc1cn2cc(-c3ccoc3)cc(C(F)(F)F)c2n1 (centres unmarked) [Compound 293, 2-[2-(6-Furan-3-yl-8-trifluoromethyl-imidazo[1,2-a]pyridin-2-yl)-acetylamino]-3-(3H-imidazol-4-yl)-propionic acid methyl ester] | > 50 µM
COC(=O)C(NC(=O)c1cn2cc(-c3ccoc3)cc(C(F)(F)F)c2n1)C(C)O (centres unmarked) [Compound 253, 2-[(6-Furan-3-yl-8-trifluoromethyl-imidazo[1,2-a]pyridine-2-carbonyl)-amino]-3-hydroxy-butyric acid methyl ester] | > 50 µM
COC(=O)C(NC(=O)Cc1cn2cc(-c3ccoc3)cc(C(F)(F)F)c2n1)C(C)O (centres unmarked) [Compound 305, 2-[2-(6-Furan-3-yl-8-trifluoromethyl-imidazo[1,2-a]pyridin-2-yl)-acetylamino]-3-hydroxy-butyric acid methyl ester] | > 50 µM
O=C(O)CCNC(=O)c1cn2cc(-c3ccoc3)cc(C(F)(F)F)c2n1 [Compound 285, 3-[(6-Furan-3-yl-8-trifluoromethyl-imidazo[1,2-a]pyridine-2-carbonyl)-amino]-propionic acid] | > 50 µM
